Results reported in patent US9023767B2, “γ-Secretase substrates and methods of use” (Memorial Sloan-Kettering Cancer Center, priority 2009, dated 2015).
Read-outs that look alike come from different tables or passages of the source.

Experiments:
γ-secretase [1] = biological target: γ-secretase (Mus musculus (Mouse), UniProt P49769); assay: Cell-based activity assay, N2A cells stably over-expressing APP
Experimental: The potency of two structurally different GSIs was assayed in four unique γ-secretase activity assays. IC50 values were determined from the dose response curves using a non-linear regression analysis in the Prism software. An in vitro assay was based on the one previously reported by Li et al. (2000), except we utilized Sb4 substrate that eliminated the need for biotinylated antibody. The cell-based activity assay used N2A mouse neuroblastoma cells stably over-expressing APP and a biotinylated 4G8 antibody that binds the C-terminus of the amyloid beta peptide. The exo-cell assay incubated HeLa cells simultaneously with GSI, Sb4 substrate as well as 0.25% CHAPSO detergent prior to detecting substrate cleavage. Finally, the extended exo-cell assay first incubated HeLa cells with GSI for 24 hrs. Subsequently, the cells were washed 1× in PBS and then incubated with Sb4 substrate and CHAPSO detergent. The assay was then carried out exactly as described for the original exo-cell method. All assays incorporate ruthenylated G2-10* antibody to detect 40-site cleavage of APP or recombinant Sb4 substrate and quantitated activity by measuring ECL. The latter assays were performed as previously described (Li et al., 2000). In the in vitro assay, recombinant Sb4 substrate was incubated for 2.5 hours at 37° C. in pH 7.0 PIPES buffer in the presence of 0.25% CHAPSO detergent and solubilized γ-secretase at a final concentration of 40 ng/ul. The detection of cleaved substrate was determined using ruthenylated G2-10* antibody. Since the Sb4 substrate is biotinylated additional 6E10 biotinylated antibody used in earlier assays is not required. In the cell-based assay, N2A mouse neuroblastoma cells that stably overexpress amyloid precursor protein were incubated with γ-secretase inhibitors in a final concentration of 1% DMSO for 24 hrs. Following incubation, the supernatant was removed from the cells and assayed for Aβ40, the cleaved APP product, using ruthenylated G2-10* antibody as well as biotinylated 4G8 antibody.

A20 mouse lymphoma cells = assay: Lymphoma cell proliferation assay, [3H]thymidine incorporation; format: cell-based; details: 48 hours
Experimental: For a lymphoma cell proliferation assay, A20 mouse lymphoma cells were seeded in a 96-well plate at a concentration of 5×10^5 cells/ml in 100 μl RPMI media containing 2% fetal bovine serum. An additional 100 μl of media containing DMSO or γ-secretase inhibitor was added and incubated for 48 hours at 37° C. After this incubation, the cells were incubated for 5 hours with 2 μCi/ml [^3H]thymidine at 37° C. Proliferative response was then evaluated by harvesting the tritiated DNA from cells using a Skatron cell harvester and proliferation assessed as a function of [^3H]thymidine incorporation measured on a β-counter.

γ-secretase [2] = biological target: γ-secretase (Homo sapiens (Human), UniProt P49768); assay: HTRF γ-secretase assay with Sb4 substrate; format: biochemical
Description: We set out to transfer the assay conditions obtained with the ECL method to an HTRF detection based format (FIG. 10b). The HTRF detection mixture consisted of mouse G2-10 antibody for recognition of the C-terminal epitope of the cleaved product, a Europium-labeled anti-mouse antibody (commonly, an antibody is conjugated with a cryptate ligand that forms a three dimensional coordination cage structure surrounding a lanthanide such as Eu^3+), along with Streptavidin conjugated to a trimeric form of the fluorescent protein allophycocyanin referred to as XL665. Cleavage of Sb4 substrate allows G2-10 mouse antibody to bind to the Aβ40-processed site on the cleaved substrate. The Steptavidin-XL665 conjugate binds directly with the biotin moiety on the N-terminal end of the Sb4 derived product. The anti-mouse Europium antibody targets to the G2-10 antibody, bringing all of these entities into close proximity. The Europium and XL665 reagents are a compatible pair of donor-acceptor fluorophores, and excitation of Europium at 337 nm results in fluorescence energy resonance transfer (FRET) to XL665 which fluoresces at 665 nm (FIG. 10b).
Human γ-secretase was prepared from HeLa cell membranes as described previously (Li et al., 2000). Briefly, HeLa cell pellet was resuspended in 1×MES buffer (50 mM MES, pH 6.0, 150 mM KCl, 5 mM CaCl2, 5 mM MgCl2) and treated with ‘complete’ protease inhibitor (Boehringer Mannheim). The resuspended pellet was mechanically homogenized by passing the cells through the French Press (Spectronic Instruments), and subsequently spun down at 800 g to remove cell debris and nuclei. Next, the supernatants were spun at 100,000 g in order to pellet the membranes. The pelleted membranes were resuspended in 1×MES buffer to approximately 12 mg/ml. This entire procedure was performed at 4° C. HeLa membranes were solubilized using 1% CHAPSO detergent in 1×MES buffer with protease inhibitors. After incubating for 1 hr at 4° C., the membrane was spun down at 100,000 g and the supernatants were collected and stored at −70° C. The collected fraction is defined as solubilized γ-secretase.
HTRF conditions were initially optimized in a 384-well format using a final volume of 20 μl. The high control for this assay was defined as the observed γ-secretase activity in the presence of 1% DMSO (v/v) and the low control as the activity observed when including 100 nM final concentration of Compound E (v/v). First, we determined a tolerable DMSO concentration that would not interfere with γ-secretase activity. Even with 3% DMSO (v/v) present in the assay mixture, there was virtually no effect on the γ-secretase activity (FIG. 11a), which was critical as delivery of library screening compounds required a final concentration of 2% DMSO (v/v) in the γ-secretase reaction. Next, we titrated the HTRF mixture components in an effort to minimize reagent costs for use in high throughput screening. […] Additionally, we varied Europium conjugated anti-mouse antibody and determined that 1 nM of this reagent in the HTRF mixture was sufficient for our assay conditions even though the signal continued to increase with higher concentrations of the anti-mouse antibody (FIG. 11c).
We have further miniaturized the HTRF assay from the established 384-well format to a 1536-well platform enabling more efficient screening of large chemical libraries. […] Based on these optimization experiments, we set our final assay conditions at 0.3 nM G2-10, 1 nM anti-mouse antibody, 15 nM Streptavidin-XL665, and proceeded with the assay at 10 μl final volume (5 μl γ-secretase mix+5 μl HTRF mix) in the 1536-well format for screening.
The pilot assay was performed in duplicate on two separate days to account for any day-to-day variability. […]

With `CC(NC(=O)Cc1cc(F)cc(F)c1)C(=O)NC1N=C(c2ccccc2)c2ccccc2N(C)C1=O` (stereo not shown) [Compound E] the IC50 (γ-secretase [1]; 24 hrs, Aβ40; read-out: Cell-based (nM), IC50) was 4.6 nM, the IC50 (γ-secretase [1]; read-out: Cell-based (nM), IC50; 24 hrs, Aβ40) was 4.6 nM and the “inhibition of cellular proliferation” value (A20 mouse lymphoma cells) was “able to inhibit cellular proliferation”. For the same compound, the IC50 (γ-secretase [2]) was 1.1 nM.
